Consider 8 compounds from patent publication US20120052079A1, “Compositions, Kits, and Methods for Predicting Anti-Cancer Response to Anthracyclines” (Dana-Farber Cancer Institute, Inc., priority 2010, published 2012).

Type in all cases: cell-based, human
For assay [1], the system named is BT549 cells. The assay can be described thus: Cathepsin release and Bid, caspase 3, PARP cleavage by immunoblot. As to conditions: for LAPTM4B knockdown-induced Bid truncation and apoptosis: BT549 pretreated with cathepsin inhibitors. On the procedure:
Cytosolic extraction was performed using the detergent digitonin which permeabilizes cholesterol-rich membranes such as plasma membrane, leaving the cholesterol-poor membranes of lysosomes and mitochondria more or less intact. Cells were exposed to an extraction buffer (250 mM sucrose, 20 mM Hepes, 10 mM KCl, 1.5 mM MgCl2, 1 mM EDTA, 1 mM EGTA, and 1 mM Pefabloc, pH 7.5) containing 25 μg/ml digitonin for 20 min on ice, inverting the tubes every 2 min. The extraction buffer was collected and proteins were precipitated by addition of 5% trichloric acid on ice for 10 min and centrifuged at ˜20,800×g for 15 min to obtain the protein pellet. The pellet was dissolved in lysis buffer.
Tumor cell line lysates or cytosols were fractionated in 7, 12 or 14% SDS-PAGE, electrophoretically transferred to a nitrocellulose membrane and probed with primary antibodies (monoclonal Anti-β-Actin antibody (Sigma), anti-Bid (BD PharMingen), anti-caspase 3, anti-H is, anti-LC3 and anti-PARP antibodies (Cell Signaling Technology), and anti-cathepsin B, anti-cathepsin D, anti-p62, HRP-conjugated secondary antibodies and FITC-conjugated secondary antibodies (Abcam). The probed proteins were visualized using the ECL Western blotting detection system from Pierce according to the manufacturer's instructions. Band densities were quantified on a AlphaImager HP imaging system (Cell Biosciences).

The test system of the next assay is MDA468 cells. The assay can be described thus: Autophagy markers LC3 and p62 by immunoblot, LAPTM4B overexpression. As to conditions: MDA468 with stable LAPTM4B over expression. The text has this: Band densities were quantified on a AlphaImager HP imaging system (Cell Biosciences).
The test system of assay [2] is MDA-MB-231 (MDA231) and BT549 cells. Description: Drug-induced apoptosis, Western blot for active caspase 3 and cleaved PARP. As to conditions: doxorubicin 1 μM or cisplatin 25 μM, 48 h. On the procedure: (§1) Viable cell number was quantified using CellTiter 96® Aqueous One Solution Cell Proliferation Assay (Promega). Results are reported as optical density at 490 nm wavelength. Cells (4,000 well^−1) were seeded into 96-well plates in triplicate. siRNA transfections were performed 24 h after cell seeding. Chemotherapeutic drugs (daunorubicin, doxorubicin, paclitaxel, and cisplatin) were added 24 h after cell seeding or siRNA transfection. Cells were exposed to a series of concentrations of individual drugs for additional 48 h. Results are presented as the percentage of viable cells in drug-treated wells vs. media-treated control wells and plotted as a drug-dose dependent cell survive curve. The dose of drug causing a fifty percent reduction of viable cells (IC50) determined drug sensitivity. Drug-induced apoptosis was evaluated 48 h after drug treatment (doxorubicin at 1 μM or cisplatin at 25 μM) following siRNA transfection by detection of active caspase 3 and cleaved poly(ADP-ribose) polymerase (PARP) by Western blot analysis using caspase 3- and PARP-specific antibodies (Cell Signaling Technology), respectively.

Assay [3] concerns MDA-MB-231 (MDA231), HCC38 and CAMA-1. The assay can be described thus: Cell growth assay, drug sensitivity after LAPTM4B/YWHAZ siRNA knockdown. As to conditions: siRNA knockdown vs control siRNA. On the procedure: Gene-specific and negative control oligonucleotides (Stealth™ Select RNAi, Invitrogen) were transfected using the Lipofectamine™ RNAi MAX protocol from Invitrogen. Three gene-specific oligonucleotide siRNAs were tested for each gene (LAPTM4b siRNA1: 5′-[…]-3′ and 3′-[…]-5′; LAPTM4b siRNA2: 5′-[…]-3′ and 3′-[…]-5′; LAPTM4b siRNA3: 5′-[…]-3′ and 3′-[…]-5′; LAPTM4b shRNA: Top strand, […], Bottom strand, […]; YWHAZ siRNA1: 5′-[…]-3′ and 3′-[…]-5′; YWHAZ siRNA2: 5′-[…]-3′ and 3′-[…]-5′; and YWHAZ siRNA3: 5′-[…]-3′ and 3′-[…]-5′). Transfections were performed in triplicate and the experiment was repeated four times to estimate the effect and standard deviation from the mean. Because specific antibodies were not available for the 12 genes tested, the effectiveness of siRNA knockdown by each oligonucleotide was determined by qRT-PCR assay of mRNA levels according to methods described herein.
as §1

In a further assay the test system is HMEC cells. The assay can be described thus: Cell growth assay (CellTiter 96), drug IC50 in HMEC transfected with LAPTM4B-HA or YWHAZ-HA. As to conditions: for effect of exogenous LAPTM4B or YWHAZ on sensitivity to drug: HMEC expressing exogenous LAPTM4B or YWHAZ.
From the text: The full length LAPTM4B and YWHAZ cDNAs linked to an HA tag were cloned into the pWZL (Boehm et al. (2005) Mol. Cell. Biol. 25, 6464-6474) and pBabe vectors, respectively, and packaged using the Phoenix™ Retroviral System from Orbigen. pWZL-LAPTM4B HA and pBabe-YWHAZ-HA were introduced into HMEC cells by retroviral infection and stably selected with blasticidin and puromycin, respectively.
as §1

The subject of assay [4] is BT549 cells. The assay can be described thus: Cellular distribution of doxorubicin (autofluorescence, confocal). How it is done: Twenty-four h after transfection with specific siRNA or control oligos, cells were challenged with 0.5 μM doxorubicin in complete medium for 24 h. After 24 h, the drug was removed and cells were cultured in fresh drug-free medium and examined at 36 and 48 h time points. At each time point, cells were washed twice in PBS, and fixed for 5 min in 3.0% paraformaldehyde and permeabilized in 0.1% Triton X-100 for 5 min. Following washing with PBS, cells were mounted in Prolong Gold® anti-fade reagent with DAPI (Invitrogen). Subcellular localization of doxorubicin was viewed by the Rhodamine (Cy3) channel and nuclear staining was viewed by the DAPI channel on a Zeiss HAL100 fluorescence microscope.
Forty-eight hours after transfection with specific siRNA or scramble control oligonucleotide, cells were treated with 0.1 μM doxorubicin in complete medium for 24 hours. After 24 hours of drug exposure, the drug was removed and cells were cultured in fresh drug-free medium and examined 24 hours later. Cells were washed, fixed and stained with DAPI as described in Li et al. (2010) Nat. Med., 16, 214-218. Subcellular localization of doxorubicin autofluorescence (excited wave: 480 nm; emitted wave: 560-620 nm) and lysosomes indicated by LysoTracker DND-26 (excited wave: 504 nm; emitted wave: 509-540 nm) was examined on a Leica SP5X Laser Scanning Confocal Microscope with a white light laser.

Another assay has as its system MDA-MB-231 cells. The assay can be described thus: Cellular distribution of doxorubicin (autofluorescence). As to conditions: 0.5 μM doxorubicin; detectable within 12 h to 24 h, sustained at 48 h.
The mark [5] stands for this setting: BT549 pretreated with pan-caspase inhibitor.

Consider `CCOC(=O)[C@H]1O[C@@H]1C(=O)N[C@@H](CC(C)C)C(=O)NCCC(C)C` (relative stereo) [EST, trans-epoxysuccinyl-L-leucylamindo-3-methylbutane ethyl ester], for which the “LAPTM4B knockdown-induced Bid truncation and apoptosis” value in the assay with BT549 cells [1] is recorded as “protected”.

In the case of `CCN(CC)CCCC(C)Nc1ccnc2cc(Cl)ccc12` (stereo not drawn) [chloroquine], the “starvation-induced autophagy (higher LC3II, lower p62) by LAPTM4B over expression” value with MDA468 cells was “blocked”.

With `N.N.[Cl][Pt][Cl]` [cisplatin], in assay [2], the “drug-induced apoptosis after knockdown of LAPTM4B or YWHAZ” value is “less apparent”. In addition, the “sensitivity to drug after specific knockdown of LAPTM4B and YWHAZ” value (“sensitivity to drug … of LAPTM4B and YWHAZ” for short) in assay [3] is recorded as “weaker or no effect”. Also, the “effect of exogenous LAPTM4B or YWHAZ on sensitivity to drug” value in the assay with HMEC cells is “no significant effect”.

`COc1cccc2c1C(=O)c1c(O)c3c(c(O)c1C2=O)C[C@@](O)(C(C)=O)C[C@@H]3O[C@H]1C[C@H](N)[C@H](O)[C@H](C)O1` [daunorubicin]: the “sensitivity to drug … of LAPTM4B and YWHAZ” value in assay [3] was “increased sensitivity”.

Turning to `COc1cccc2c1C(=O)c1c(O)c3c(c(O)c1C2=O)C[C@@](O)(C(=O)CO)C[C@@H]3O[C@H]1C[C@H](N)[C@H](O)[C@H](C)O1` [doxorubicin], the “doxorubicin distribution after down-regulation of LAPTM4B” value in the assay with BT549 cells [4] (BT549, LAPTM4B-specific siRNA, 48 hours exposure) is reported as “release of doxorubicin from lysosomes”. Besides, the “intracellular distribution of doxorubicin autofluorescence” value in the assay on BT549 cells [4] (BT549 overexpressing LAPTM4B, Lysotracker green DND-26) is “co-localizes with the lysosome marker”. In addition, the “nuclear localization of doxorubicin after LAPTM4B siRNA knockdown” value with MDA-MB-231 cells was “substantial increase in nuclear localization”. The “drug-induced apoptosis after knockdown of LAPTM4B or YWHAZ” value in assay [2] is on record as “considerably increased”. In assay [3], the “sensitivity to drug … of LAPTM4B and YWHAZ” value was “increased sensitivity”. In addition, the “increase in IC50 of doxorubicin” value in the assay with HMEC cells (HMEC expressing exogenous LAPTM4B vs control vector, P<0.002) was 270%; with HMEC cells (HMEC expressing exogenous YWHAZ vs control vector, P=0.0001), 394%.

Consider `CC(=O)O[C@H]1C(=O)[C@@]2(C)[C@H]([C@H](OC(=O)c3ccccc3)[C@]3(O)C[C@H](OC(=O)[C@H](O)[C@@H](NC(=O)c4ccccc4)c4ccccc4)C(C)=C1C3(C)C)[C@]1(OC(C)=O)CO[C@@H]1C[C@@H]2O` [paclitaxel], for which the “sensitivity to drug … of LAPTM4B and YWHAZ” value in assay [3] is “weaker or no effect”. Moreover, in the assay with HMEC cells, the “effect of exogenous LAPTM4B or YWHAZ on sensitivity to drug” value is on record as “no significant effect”.

For pepstatin A, the “LAPTM4B knockdown-induced Bid truncation and apoptosis” value with BT549 cells [1] was “protected”.

As for “z-Val-Ala-Asp-fluoromethylketone [z-VAD-FMK]”, in the assay on BT549 cells [1] (setting [5]), the “Bid truncation after LAPTM4B knockdown” value was “did not prevent Bid truncation” and the “caspase 3 activation after LAPTM4B knockdown” value is listed as “sufficient to abrogate caspase 3 activation”.
